Results published in patent publication US9180120B2, “Substituted N-phenethyltriazoloneacetamides and use thereof” (Bayer Intellectual Property GmbH, priority 2010, dated 2015).

Key:
human V2 receptor = human V2 receptor (Homo sapiens (Human), UniProt P30518); assay: Cellular in vitro assay for determining the vasopressin receptor activity (aequorin luminescence, CHO cells, antagonism of [Arg8]-vasopressin); assay type: cell-based; details: cell line transfected with the human V2 receptor; agonist [Arg8]-vasopressin; read-out: IC50 hV2
Excerpt: (§1) • EDTA ethylenediaminetetraacetic acid • DMEM Dulbecco's Modified Eagle Medium • FCS foetal calf serum • HEPES 4-(2-hydroxyethyl)-1-piperazineethanesulphonic acid • SmGM Smooth Muscle Cell Growth Media • Tris-HCl 2-amino-2-(hydroxymethyl)-1,3-propanediol hydrochloride B-1. Cellular in vitro Assay for Determining the Vasopressin Receptor Activity
(§2) The identification of agonists and antagonists of the V1a and V2 vasopressin receptors from humans and rats and also the quantification of the activity of the compounds of the invention takes place using recombinant cell lines. […] In addition, the cells are stably transfected with the human or rat V1a or V2 receptors.
(§3) On the day before the assay, the cells are plated out in culture medium (DMEM, 10% FCS, 2 mM glutamine, 10 mM HEPES) in 384-well microtitre plates and kept in a cell incubator (96% humidity, 5% v/v CO2, 37° C.). On the day of the assay, the culture medium is replaced by a Tyrode solution (140 mM NaCl, 5 mM KCl, 1 mM MgCl2, 2 mM CaCl2, 20 mM glucose, 20 mM HEPES), which additionally contains the cofactor coelenterazine (50 μM), and the microtitre plate is then incubated for a further 3-4 hours. The test substances in various concentrations are placed for 10 to 20 minutes in the wells of the microtitre plate before the agonist [Arg^8]-vasopressin is added, and the resulting light signal is measured immediately in the luminometer.

human V1a receptor = human V1a receptor (Homo sapiens (Human), UniProt P37288); assay: as above; assay type: cell-based; details: cell line transfected with the human V1a receptor; agonist [Arg8]-vasopressin; read-out: IC50 hV1a
Excerpt: as §1, §2, §3

human V1a receptor, sequence (P37288 whole entry): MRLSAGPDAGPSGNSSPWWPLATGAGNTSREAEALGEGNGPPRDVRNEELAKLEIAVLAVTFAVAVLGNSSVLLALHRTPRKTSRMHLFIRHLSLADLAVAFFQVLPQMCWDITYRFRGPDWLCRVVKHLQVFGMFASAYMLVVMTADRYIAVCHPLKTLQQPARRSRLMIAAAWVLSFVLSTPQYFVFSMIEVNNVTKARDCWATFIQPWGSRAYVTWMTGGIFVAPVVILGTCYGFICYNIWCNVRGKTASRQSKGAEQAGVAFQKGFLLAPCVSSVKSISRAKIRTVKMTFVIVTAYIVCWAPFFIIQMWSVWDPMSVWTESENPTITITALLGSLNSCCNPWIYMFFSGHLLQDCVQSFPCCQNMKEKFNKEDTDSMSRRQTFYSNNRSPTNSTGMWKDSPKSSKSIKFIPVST
human V2 receptor, sequence (P30518 whole entry): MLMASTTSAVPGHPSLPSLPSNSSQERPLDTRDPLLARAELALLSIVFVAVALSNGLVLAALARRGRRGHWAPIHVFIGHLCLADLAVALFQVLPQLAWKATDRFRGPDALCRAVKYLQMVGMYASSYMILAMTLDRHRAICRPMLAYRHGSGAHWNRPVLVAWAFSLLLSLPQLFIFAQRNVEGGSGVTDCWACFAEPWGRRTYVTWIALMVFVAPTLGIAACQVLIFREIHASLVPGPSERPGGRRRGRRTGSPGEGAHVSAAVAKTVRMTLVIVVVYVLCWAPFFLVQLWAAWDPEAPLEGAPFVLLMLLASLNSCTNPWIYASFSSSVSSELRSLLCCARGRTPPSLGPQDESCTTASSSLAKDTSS

SMILES | IC50 (human V2 receptor) [nM] | IC50 (human V1a receptor) [nM]
NC(=O)OC(CNC(=O)Cn1nc(-c2ccc(Cl)cc2)n(Cc2ccccc2F)c1=O)c1ccccc1Cl (racemic) [Example 57, 1-(2-Chlorophenyl)-2-({[3-(4-chlorophenyl)-4-(2-fluorobenzyl)-5-oxo-4,5-dihydro-1H-1,2,4-triazol-1-yl]acetyl}amino)ethyl carbamate] | 22 | 10
NC(=O)OC(CNC(=O)Cn1nc(-c2ccc(Cl)cc2)n(CCC(F)(F)F)c1=O)c1ccccc1Cl (racemic) [Example 59, 1-(2-Chlorophenyl)-2-({[3-(4-chlorophenyl)-5-oxo-4-(3,3,3-trifluoropropyl)-4,5-dihydro-1H-1,2,4-triazol-1-yl]acetyl}amino)ethyl carbamate] | 48 | 14
COCCn1c(-c2ccc(Cl)s2)nn(CC(=O)NCC(NC(=O)OC(C)(C)C)c2ccccc2C(F)(F)F)c1=O (racemic) [Example 66, tert-Butyl {2-({[3-(5-chloro-2-thienyl)-4-(2-methoxyethyl)-5-oxo-4,5-dihydro-1H-1,2,4-triazol-1-yl]acetyl}amino)-1-[2-(trifluoromethyl)phenyl]ethyl}carbamate] | 1200 | 51
CC(C)(C)OC(=O)NC(CNC(=O)Cn1nc(-c2ccc(Cl)s2)n(Cc2ccccc2F)c1=O)c1ccccc1C(F)(F)F (racemic) [Example 67, tert-Butyl {2-({[3-(5-chloro-2-thienyl)-4-(2-fluorobenzyl)-5-oxo-4,5-dihydro-1H-1,2,4-triazol-1-yl]acetyl}amino)-1-[2-(trifluoromethyl)phenyl]ethyl}carbamate] | 300 | 18
COCCn1c(-c2ccc(Cl)s2)nn(CC(=O)NCC(NS(C)(=O)=O)c2ccccc2C(F)(F)F)c1=O (racemic) [Example 69, 2-[3-(5-Chloro-2-thienyl)-4-(2-methoxyethyl)-5-oxo-4,5-dihydro-1H-1,2,4-triazol-1-yl]-N-{2-[(methylsulphonyl)amino]-2-[2-(trifluoromethyl)phenyl]ethyl}acetamide] | 3500 | 130
NC(=O)OCC(CNC(=O)Cn1nc(-c2ccc(Cl)cc2)n(C[C@H](O)C(F)(F)F)c1=O)c1ccccc1C(F)(F)F (single isomer, unassigned) [Example 2] | 16 | 1
NC(=O)OCC(CNC(=O)Cn1nc(-c2ccc(Cl)cc2)n(C[C@H](O)C(F)(F)F)c1=O)c1ccccc1Cl (single isomer, unassigned) [Example 6] |  | 12
NC(=O)OCC(CNC(=O)Cn1nc(-c2ccc(Cl)cc2)n(C[C@H](O)C(F)(F)F)c1=O)c1cccc(C(F)(F)F)c1 (single isomer, unassigned) [Example 9] | 5 | 63
CC(C)(C)OC(=O)NC(CNC(=O)Cn1nc(-c2ccc(Cl)cc2)n(C[C@H](O)C(F)(F)F)c1=O)c1cccc(Cl)c1Cl (single isomer, unassigned) [Example 19] | 11 | 
NC(=O)NC(CNC(=O)Cn1nc(-c2ccc(Cl)cc2)n(C[C@H](O)C(F)(F)F)c1=O)c1ccccc1Cl (single isomer, unassigned) [Example 33] | 8 | 17
CC(=O)NC(C)(CNC(=O)Cn1nc(-c2ccc(Cl)cc2)n(C[C@H](O)C(F)(F)F)c1=O)c1cccc(C(F)(F)F)c1 (single isomer, unassigned) [Example 39] | 10 | 25
NC(=O)OC(CNC(=O)Cn1nc(-c2ccc(Cl)cc2)n(C[C@H](O)C(F)(F)F)c1=O)c1ccccc1C(F)(F)F (single isomer, unassigned) [Example 42] | 3 | 8
NC(=O)OC(CNC(=O)Cn1nc(-c2ccc(Cl)cc2)n(C[C@H](O)C(F)(F)F)c1=O)c1cccc(Cl)c1Cl (single isomer, unassigned) [Example 52] | 2 | 7
CCNC(=O)OCC(CNC(=O)Cn1nc(-c2ccc(Cl)cc2)n(C[C@H](O)C(F)(F)F)c1=O)c1cccc(C(F)(F)F)c1 (stereo partly drawn) [Example 10, 3-[({3-(4-Chlorophenyl)-5-oxo-4-[(2S)-3,3,3-trifluoro-2-hydroxypropyl]-4,5-dihydro-1H-1,2,4-triazol-1-yl}acetyl)amino]-2-[3-(trifluoromethyl)phenyl]propyl ethylcarbamate] | 9 | 24
CC(C)(C)OC(=O)NC(CNC(=O)Cn1nc(-c2ccc(Cl)cc2)n(C[C@H](O)C(F)(F)F)c1=O)c1ccccc1C(F)(F)F (stereo partly drawn) [Example 13, tert-Butyl {2-[({3-(4-chlorophenyl)-5-oxo-4-[(2S)-3,3,3-trifluoro-2-hydroxypropyl]-4,5-dihydro-1H-1,2,4-triazol-1-yl}acetyl)amino]-1-[2-(trifluoromethyl)phenyl]ethyl}carbamate] | 70 | 4
CS(=O)(=O)NC(CNC(=O)Cn1nc(-c2ccc(Cl)cc2)n(C[C@H](O)C(F)(F)F)c1=O)c1ccccc1Cl (stereo partly drawn) [Example 25, N-{2-(2-Chlorophenyl)-2-[(methylsulphonyl)amino]ethyl}-2-{3-(4-chlorophenyl)-5-oxo-4-[(2S)-3,3,3-trifluoro-2-hydroxypropyl]-4,5-dihydro-1H-1,2,4-triazol-1-yl}acetamide] | 5 | 8
O=CNC(CNC(=O)Cn1nc(-c2ccc(Cl)cc2)n(C[C@H](O)C(F)(F)F)c1=O)c1cccc(C(F)(F)F)c1 (stereo partly drawn) [Example 36, 2-{3-(4-Chlorophenyl)-5-oxo-4-[(2S)-3,3,3-trifluoro-2-hydroxypropyl]-4,5-dihydro-1H-1,2,4-triazol-1-yl}-N-{2-formamido-2-[3-(trifluoromethyl)phenyl]ethyl}acetamide] | 13 | 19
NC(=O)OC(CNC(=O)Cn1nc(-c2ccc(Cl)cc2)n(C[C@H](O)C(F)(F)F)c1=O)c1ccccc1Cl (stereo partly drawn) [Example 47, 1-(2-Chlorophenyl)-2-[({3-(4-chlorophenyl)-5-oxo-4-[(2S)-3,3,3-trifluoro-2-hydroxypropyl]-4,5-dihydro-1H-1,2,4-triazol-1-yl}acetyl)amino]ethyl carbamate] | 2 | 5
O=C(Cn1nc(-c2ccc(Cl)cc2)n(C[C@H](O)C(F)(F)F)c1=O)N[C@@H](CO)Cc1cccc(C(F)(F)F)c1 [Example 53, 2-{3-(4-Chlorophenyl)-5-oxo-4-[(2S)-3,3,3-trifluoro-2-hydroxypropyl]-4,5-dihydro-1H-1,2,4-triazol-1-yl}-N-{(2R)-1-hydroxy-3-[3-(trifluoromethyl)phenyl]propan-2-yl}acetamide] | 15 | 4
